Results as given in ChEMBL document CHEMBL5338745, “Factor XIa Inhibitors in Anticoagulation Therapy: Recent Advances and Perspectives” (J Med Chem, 2023).
pIC50, pKi: −log10 of the molar value. One block for each compound: values may come before it.

Columns and labels:
Coagulation factor XI [1] = molecular target: T1, Coagulation factor XI (Homo sapiens, UniProt P03951); experiment: Inhibition of FXIa (unknown origin)
[2] = Half life in IG dosed Beagle dog measured upto 24 hrs by LC/MS analysis; type: ADME, organism-based, Canis lupus familiaris; details: in vivo, po
Plasma kallikrein [3] = molecular target: T2, Plasma kallikrein (Homo sapiens, UniProt P03952)
Coagulation factor XI [4] = molecular target: T1, Coagulation factor XI; experiment: Inhibition of human FXIa by absorbance based analysis
[5] = Oral bioavailability in Beagle dog measured upto 24 hrs by LC/MS analysis; type: ADME, organism-based, Canis lupus familiaris; details: in vivo
[6] = Half life in rat; type: ADME; details: in vivo
[7] = Solubility of the compound; type: physicochemical
[8] = Clearance in rat; type: ADME; details: in vivo
[9] = Clearance in Sprague-Dawley rat at 1 mg/kg, iv; type: ADME, organism-based; details: in vivo
Plasma [10] = experiment: Anticoagulant activity in human plasma assessed as concentration required to double the activated partial thromboplastin time; type: functional
[11] = Half life in Sprague-Dawley rat at 1 mg/kg, iv; type: ADME, organism-based; details: in vivo
[12] = Metabolic stability in dog liver microsomes assessed as half life; type: ADME, Canis lupus familiaris, Microsome
[13] = Oral bioavailability in dog; type: ADME, organism-based, Canis lupus familiaris; details: in vivo
[14] = Plasma protein binding in human at 10 pM incubated for 4 hrs by HPLC-MS/MS analysis; type: ADME, cell-free; details: read-out: PPB
Plasma [15] = experiment: Anticoagulant activity in human plasma assessed as concentration required to 1.5 times activation of partial thromboplastin time; type: functional
in vivo [16] = details: rat, iv, 0.3 mg/kg
in vivo [17] = details: rhesus monkey, iv, 3 mg/kg
[18] = Half life in Sprague-Dawley rat at 0.5 mg/kg, iv; type: ADME, organism-based; details: in vivo
[19] = Clearance in Sprague-Dawley rat at 0.5 mg/kg, iv; type: ADME, organism-based; details: in vivo
[20] = Oral bioavailability in Sprague-Dawley rat at 3 mg/kg; type: ADME, organism-based; details: in vivo
[21] = MRT in iv dosed rat measured upto 8 hrs by LC-MS/MS analysis; type: ADME, organism-based; details: in vivo
[22] = Half life in human at 0.6 mg/kg, iv administered for 5 days; type: ADME, organism-based; details: in vivo, time 5 day
Coagulation factor XI [23] = molecular target: T1, Coagulation factor XI; experiment: Inhibition of human FXIa
Prothrombin = Prothrombin (Homo sapiens, UniProt P00734); experiment: Inhibition of human thrombin
Trypsin = Trypsin (Homo sapiens, UniProt P07477+P07478+P35030); experiment: Inhibition of human trypsin; type: protein assay
Coagulation factor XI [24] = molecular target: T1, Coagulation factor XI; experiment: Binding affinity to FXIa (unknown origin) assessed as inhibition constant
Plasma kallikrein [25] = molecular target: T2, Plasma kallikrein; experiment: Binding affinity to PKal (unknown origin) assessed as inhibition constant

T1 sequence (P03951 19-387 limits assumed): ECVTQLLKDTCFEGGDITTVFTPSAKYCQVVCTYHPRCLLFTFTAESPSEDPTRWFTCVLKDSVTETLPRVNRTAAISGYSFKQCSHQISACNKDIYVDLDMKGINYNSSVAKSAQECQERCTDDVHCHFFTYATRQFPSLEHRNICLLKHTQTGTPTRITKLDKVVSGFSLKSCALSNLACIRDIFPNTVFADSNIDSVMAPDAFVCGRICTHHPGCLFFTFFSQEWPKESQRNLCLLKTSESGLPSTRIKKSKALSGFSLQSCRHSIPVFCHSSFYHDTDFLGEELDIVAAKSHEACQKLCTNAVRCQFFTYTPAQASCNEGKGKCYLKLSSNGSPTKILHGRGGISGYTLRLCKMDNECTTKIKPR
T1 sequence (P03951 388-625 limits assumed): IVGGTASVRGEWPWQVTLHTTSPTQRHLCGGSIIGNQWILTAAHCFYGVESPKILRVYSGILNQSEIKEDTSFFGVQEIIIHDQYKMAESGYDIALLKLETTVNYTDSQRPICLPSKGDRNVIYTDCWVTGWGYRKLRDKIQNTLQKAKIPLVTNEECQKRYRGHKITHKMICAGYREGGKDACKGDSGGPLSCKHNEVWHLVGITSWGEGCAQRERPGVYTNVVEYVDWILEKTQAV
T2 sequence (P03952 20-390 limits assumed): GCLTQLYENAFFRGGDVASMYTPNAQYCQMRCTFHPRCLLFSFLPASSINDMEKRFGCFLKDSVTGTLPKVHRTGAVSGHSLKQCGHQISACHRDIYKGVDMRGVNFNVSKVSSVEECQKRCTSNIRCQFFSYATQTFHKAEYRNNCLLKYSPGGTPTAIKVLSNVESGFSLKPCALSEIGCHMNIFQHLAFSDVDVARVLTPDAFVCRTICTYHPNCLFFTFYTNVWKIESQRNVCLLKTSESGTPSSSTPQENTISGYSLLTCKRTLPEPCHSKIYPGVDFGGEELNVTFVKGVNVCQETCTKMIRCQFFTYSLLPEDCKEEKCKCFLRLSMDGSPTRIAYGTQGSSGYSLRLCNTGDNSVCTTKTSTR
T2 sequence (P03952 391-638 limits assumed): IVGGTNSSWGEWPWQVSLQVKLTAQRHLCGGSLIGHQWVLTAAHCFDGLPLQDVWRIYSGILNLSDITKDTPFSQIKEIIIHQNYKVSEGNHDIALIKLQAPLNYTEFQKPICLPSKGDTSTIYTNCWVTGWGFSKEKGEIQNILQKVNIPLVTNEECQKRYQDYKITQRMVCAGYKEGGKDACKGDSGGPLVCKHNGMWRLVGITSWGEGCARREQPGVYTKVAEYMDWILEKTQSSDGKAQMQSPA

Compound: C[C@@H]1CCC[C@H](n2cnc(-c3cc(Cl)ccc3-n3cnnn3)cc2=O)c2cc(c3c(n2)OCCO3)-c2c(cnn2C)NC1=O
pIC50 (Coagulation factor XI [1]): 7.98

Compound: O=C(/C=C/c1cc(Cl)ccc1-n1cnnn1)N[C@@H](CC(=O)N1CCN(c2ccccc2)CC1)C(=O)Nc1ccc(C(=O)O)cc1
pIC50 (Coagulation factor XI [1]): 8.15 | half-life [6]: 1.26 h | pIC50 (Plasma kallikrein [3]): < 4.85 | solubility [7]: > 5200 µg/mL | clearance [8]: 9.2 mL/min/kg

Compound: O=C(O)c1cc2cc(NC(=O)[C@H](Cc3ccc(N4CCN(C5CCC(O)CC5)CC4=O)cc3)N3CCN(c4cc(Cl)ccc4-n4cnnn4)C(=O)C3=O)ccc2[nH]1 (stereo partly drawn)
clearance [9]: 33.3 mL/min/kg | EC (Plasma [10]): 1.1 µM | pIC50 (Coagulation factor XI [4]): 8.76 | half-life [11]: 0.46 h

Compound: CC[C@@H](NC(=O)N1C(=O)[C@H](Cc2ccnc(N)c2)[C@H]1C(=O)N(C)c1nccn1C)c1ccccc1
half-life [12]: 2.02 h | pIC50 (Coagulation factor XI [1]): > 8.00 | bioavailability [13]: > 33% | fraction unbound at 4 h, 1e-05 µM [14]: 0.5

Compound: Nc1ccc(-c2cnc(Cn3c4c(c(-c5cc(Cl)ccc5-n5cnnn5)cc3=O)OCC4)[nH]2)c(F)n1
pIC50 (Coagulation factor XI [1]): 8.80

Compound: C[C@@H]1CCC[C@H](n2cnc(-c3cc(Cl)ccc3-n3cc(Cl)nn3)cc2=O)c2cc(ccn2)-c2c(cnn2C(F)F)NC1=O [MILVEXIAN]
EC (Plasma [15]): 0.5 µM

Compound: C[C@@H]1CCC[C@H](c2ccc(-c3cc(Cl)ccc3-n3cc(Cl)nn3)oc2=O)c2cc(ccn2)-c2c(cnn2C(F)F)NC1=O
pIC50 (Coagulation factor XI [1]): 8.41 | EC (Plasma [10]): 0.87 µM | half-life [18]: 1 h | clearance [19]: 5.65 mL/min/kg | bioavailability [20]: 37.1%

Compound: COC(=O)Nc1ccc2c(c1)NC(=O)[C@H](C)CCC[C@H](c1ccc(-c3cc(Cl)ccc3-n3cc(C(F)(F)F)cn3)c[n+]1[O-])c1nc-2c(C)[nH]1
pIC50 (Coagulation factor XI [1]): 9.05 | pIC50 (Plasma kallikrein [3]): 7.38 | MRT [21]: 11 h

Compound: C[C@@H](NC(=O)N1C(=O)[C@H](Cc2ccnc(N)c2)[C@H]1C(=O)O)C1CCCCC1 [FRUNEXIAN]
half-life [22]: 0.75 h | pIC50 (Coagulation factor XI [23]): 8.15 | pIC50 (Prothrombin): < 4.70 | IC50 (Trypsin): > 4800 nM

Compound: CC[C@@H](NC(=O)N1C(=O)[C@H](Cc2ccnc(N)c2)[C@H]1C(=O)O)c1ccccc1
pIC50 (Coagulation factor XI [1]): > 8.00

Compound: COC(=O)NCC[C@@H]1Cc2cccc(c2)[C@@H](n2cnc(-c3cc(Cl)ccc3-n3cc(C(F)(F)F)cn3)cc2=O)CCC[C@@H](C)C(=O)N1
pKi (Coagulation factor XI [24]): 8.30 | pKi (Plasma kallikrein [25]): 5.75

Further lines, results first:

half-life [2]: 4.5 h | pKi (Plasma kallikrein [3]): 6.99 | pKi (Coagulation factor XI [4]): 8.80 | bioavailability [5]: 49.6%
Compound: COc1nn([C@@H](Cc2ccccc2)C(=O)Nc2ccc(C(=O)O)cc2)c(=O)cc1-c1cc(Cl)ccc1C(C)=O

pKi (Coagulation factor XI [1]): 8.22
Compound: O=C(O)c1ccc(NC(=O)[C@H](CC2=CC=CCC2)n2ccc(-c3cc(Cl)ccc3-n3cnnn3)cc2=O)cc1

clearance (in vivo [16]): 13.3 mL/min/kg | clearance (in vivo [17]): 5.5 mL/min/kg
Compound: CC[C@@H](C(=O)Nc1ccc(C(N)=O)c(F)c1)n1cc(OC)c(-c2cc(Cl)ccc2-n2cc(Cl)nn2)cc1=O

pIC50 (Coagulation factor XI [1]): 8.60 | pIC50 (Plasma kallikrein [3]): 6.72
Compound: O=C(O)c1ccc(NC(=O)[C@H](Cc2ccccc2)n2cnc(-c3cc(Cl)ccc3-n3cc(Cl)nn3)cc2=O)cc1

clearance (in vivo [16]): 13.8 mL/min/kg | clearance (in vivo [17]): 2 mL/min/kg
Compound: CC[C@@H](C(=O)Nc1ccc(C(N)=O)c(F)c1)n1cc(OC)c(-c2cc(Cl)ccc2-n2cc(C(F)(F)F)nn2)cc1=O

pIC50 (Coagulation factor XI [1]): 8.52
Compound: COc1cn(C(Cc2ccccc2)c2nc3cc(C(=O)O)ccc3[nH]2)c(=O)cc1-c1cc(Cl)ccc1-n1cnnn1 (stereo not drawn)
